{"source": "patent US11377427B2", "about": "“Triazoles for regulating intracellular calcium homeostasis” (UNIVERSIDAD DEL PAIS VASCO, priority 2016, dated 2022)", "key": {"[1]": {"test_system": "human control myotubes LHCN-M2", "test": "In vitro toxicity in human myotubes, CytoTox 96 colorimetric assay", "assay_type": "cell-based", "details": "concentrations between 10 nM and 2 mM; 24 hours of incubation; FIG. 1", "experimental": "These assays were carried out in human control myotubes LHCN-M2 after 14 days in differentiation medium. To determine the toxicity of the different analyzed compounds, particularly AHK1 and AHK2 according to the invention, these compounds were added to the culture medium for 24 hours at 37° C. at different concentrations (0-2 mM). For comparison purposes, the same assay was performed by adding reference compound S-107. Cell viability was determined by means of Cytotox 96 (Promega) colorimetric assay following instructions in the manual."}, "[2]": {"test_system": "fibers isolated from mouse flexor digitorum brevis muscle (dystrophic MDX fibers)", "test": "Baseline intracellular calcium levels in mouse muscle fibers (Fura 2-AM)", "assay_type": "cell-based", "details": "150 nM, overnight treatment; FIG. 2", "experimental": "Fibers isolated from mouse flexor digitorum brevis muscle were cultured overnight in the presence or absence of compounds AHK1 and AHK2 at a concentration of 150 nM. Baseline intracellular calcium levels were evaluated by means of incubating the fibers with Fura 2-AM ratiometric fluorochrome (4 μM) and pluronic acid (0.02%) for 30 minutes at 37° C., in the culture medium. The fibers were viewed with a high-resolution digital camera and intracellular [Ca^2+] was estimated by means of a 340 nm/380 nm excitation ratio."}, "[3]": {"biological_target": "T1, RyR1-calstabin1 interaction (Homo sapiens, UniProt P21817+P62942)", "T1 construct": "endogenous in cells; host or cells: LHCN-M2 human myotubes (differentiated for 9 days)", "T1 sequence (P21817 whole entry)": "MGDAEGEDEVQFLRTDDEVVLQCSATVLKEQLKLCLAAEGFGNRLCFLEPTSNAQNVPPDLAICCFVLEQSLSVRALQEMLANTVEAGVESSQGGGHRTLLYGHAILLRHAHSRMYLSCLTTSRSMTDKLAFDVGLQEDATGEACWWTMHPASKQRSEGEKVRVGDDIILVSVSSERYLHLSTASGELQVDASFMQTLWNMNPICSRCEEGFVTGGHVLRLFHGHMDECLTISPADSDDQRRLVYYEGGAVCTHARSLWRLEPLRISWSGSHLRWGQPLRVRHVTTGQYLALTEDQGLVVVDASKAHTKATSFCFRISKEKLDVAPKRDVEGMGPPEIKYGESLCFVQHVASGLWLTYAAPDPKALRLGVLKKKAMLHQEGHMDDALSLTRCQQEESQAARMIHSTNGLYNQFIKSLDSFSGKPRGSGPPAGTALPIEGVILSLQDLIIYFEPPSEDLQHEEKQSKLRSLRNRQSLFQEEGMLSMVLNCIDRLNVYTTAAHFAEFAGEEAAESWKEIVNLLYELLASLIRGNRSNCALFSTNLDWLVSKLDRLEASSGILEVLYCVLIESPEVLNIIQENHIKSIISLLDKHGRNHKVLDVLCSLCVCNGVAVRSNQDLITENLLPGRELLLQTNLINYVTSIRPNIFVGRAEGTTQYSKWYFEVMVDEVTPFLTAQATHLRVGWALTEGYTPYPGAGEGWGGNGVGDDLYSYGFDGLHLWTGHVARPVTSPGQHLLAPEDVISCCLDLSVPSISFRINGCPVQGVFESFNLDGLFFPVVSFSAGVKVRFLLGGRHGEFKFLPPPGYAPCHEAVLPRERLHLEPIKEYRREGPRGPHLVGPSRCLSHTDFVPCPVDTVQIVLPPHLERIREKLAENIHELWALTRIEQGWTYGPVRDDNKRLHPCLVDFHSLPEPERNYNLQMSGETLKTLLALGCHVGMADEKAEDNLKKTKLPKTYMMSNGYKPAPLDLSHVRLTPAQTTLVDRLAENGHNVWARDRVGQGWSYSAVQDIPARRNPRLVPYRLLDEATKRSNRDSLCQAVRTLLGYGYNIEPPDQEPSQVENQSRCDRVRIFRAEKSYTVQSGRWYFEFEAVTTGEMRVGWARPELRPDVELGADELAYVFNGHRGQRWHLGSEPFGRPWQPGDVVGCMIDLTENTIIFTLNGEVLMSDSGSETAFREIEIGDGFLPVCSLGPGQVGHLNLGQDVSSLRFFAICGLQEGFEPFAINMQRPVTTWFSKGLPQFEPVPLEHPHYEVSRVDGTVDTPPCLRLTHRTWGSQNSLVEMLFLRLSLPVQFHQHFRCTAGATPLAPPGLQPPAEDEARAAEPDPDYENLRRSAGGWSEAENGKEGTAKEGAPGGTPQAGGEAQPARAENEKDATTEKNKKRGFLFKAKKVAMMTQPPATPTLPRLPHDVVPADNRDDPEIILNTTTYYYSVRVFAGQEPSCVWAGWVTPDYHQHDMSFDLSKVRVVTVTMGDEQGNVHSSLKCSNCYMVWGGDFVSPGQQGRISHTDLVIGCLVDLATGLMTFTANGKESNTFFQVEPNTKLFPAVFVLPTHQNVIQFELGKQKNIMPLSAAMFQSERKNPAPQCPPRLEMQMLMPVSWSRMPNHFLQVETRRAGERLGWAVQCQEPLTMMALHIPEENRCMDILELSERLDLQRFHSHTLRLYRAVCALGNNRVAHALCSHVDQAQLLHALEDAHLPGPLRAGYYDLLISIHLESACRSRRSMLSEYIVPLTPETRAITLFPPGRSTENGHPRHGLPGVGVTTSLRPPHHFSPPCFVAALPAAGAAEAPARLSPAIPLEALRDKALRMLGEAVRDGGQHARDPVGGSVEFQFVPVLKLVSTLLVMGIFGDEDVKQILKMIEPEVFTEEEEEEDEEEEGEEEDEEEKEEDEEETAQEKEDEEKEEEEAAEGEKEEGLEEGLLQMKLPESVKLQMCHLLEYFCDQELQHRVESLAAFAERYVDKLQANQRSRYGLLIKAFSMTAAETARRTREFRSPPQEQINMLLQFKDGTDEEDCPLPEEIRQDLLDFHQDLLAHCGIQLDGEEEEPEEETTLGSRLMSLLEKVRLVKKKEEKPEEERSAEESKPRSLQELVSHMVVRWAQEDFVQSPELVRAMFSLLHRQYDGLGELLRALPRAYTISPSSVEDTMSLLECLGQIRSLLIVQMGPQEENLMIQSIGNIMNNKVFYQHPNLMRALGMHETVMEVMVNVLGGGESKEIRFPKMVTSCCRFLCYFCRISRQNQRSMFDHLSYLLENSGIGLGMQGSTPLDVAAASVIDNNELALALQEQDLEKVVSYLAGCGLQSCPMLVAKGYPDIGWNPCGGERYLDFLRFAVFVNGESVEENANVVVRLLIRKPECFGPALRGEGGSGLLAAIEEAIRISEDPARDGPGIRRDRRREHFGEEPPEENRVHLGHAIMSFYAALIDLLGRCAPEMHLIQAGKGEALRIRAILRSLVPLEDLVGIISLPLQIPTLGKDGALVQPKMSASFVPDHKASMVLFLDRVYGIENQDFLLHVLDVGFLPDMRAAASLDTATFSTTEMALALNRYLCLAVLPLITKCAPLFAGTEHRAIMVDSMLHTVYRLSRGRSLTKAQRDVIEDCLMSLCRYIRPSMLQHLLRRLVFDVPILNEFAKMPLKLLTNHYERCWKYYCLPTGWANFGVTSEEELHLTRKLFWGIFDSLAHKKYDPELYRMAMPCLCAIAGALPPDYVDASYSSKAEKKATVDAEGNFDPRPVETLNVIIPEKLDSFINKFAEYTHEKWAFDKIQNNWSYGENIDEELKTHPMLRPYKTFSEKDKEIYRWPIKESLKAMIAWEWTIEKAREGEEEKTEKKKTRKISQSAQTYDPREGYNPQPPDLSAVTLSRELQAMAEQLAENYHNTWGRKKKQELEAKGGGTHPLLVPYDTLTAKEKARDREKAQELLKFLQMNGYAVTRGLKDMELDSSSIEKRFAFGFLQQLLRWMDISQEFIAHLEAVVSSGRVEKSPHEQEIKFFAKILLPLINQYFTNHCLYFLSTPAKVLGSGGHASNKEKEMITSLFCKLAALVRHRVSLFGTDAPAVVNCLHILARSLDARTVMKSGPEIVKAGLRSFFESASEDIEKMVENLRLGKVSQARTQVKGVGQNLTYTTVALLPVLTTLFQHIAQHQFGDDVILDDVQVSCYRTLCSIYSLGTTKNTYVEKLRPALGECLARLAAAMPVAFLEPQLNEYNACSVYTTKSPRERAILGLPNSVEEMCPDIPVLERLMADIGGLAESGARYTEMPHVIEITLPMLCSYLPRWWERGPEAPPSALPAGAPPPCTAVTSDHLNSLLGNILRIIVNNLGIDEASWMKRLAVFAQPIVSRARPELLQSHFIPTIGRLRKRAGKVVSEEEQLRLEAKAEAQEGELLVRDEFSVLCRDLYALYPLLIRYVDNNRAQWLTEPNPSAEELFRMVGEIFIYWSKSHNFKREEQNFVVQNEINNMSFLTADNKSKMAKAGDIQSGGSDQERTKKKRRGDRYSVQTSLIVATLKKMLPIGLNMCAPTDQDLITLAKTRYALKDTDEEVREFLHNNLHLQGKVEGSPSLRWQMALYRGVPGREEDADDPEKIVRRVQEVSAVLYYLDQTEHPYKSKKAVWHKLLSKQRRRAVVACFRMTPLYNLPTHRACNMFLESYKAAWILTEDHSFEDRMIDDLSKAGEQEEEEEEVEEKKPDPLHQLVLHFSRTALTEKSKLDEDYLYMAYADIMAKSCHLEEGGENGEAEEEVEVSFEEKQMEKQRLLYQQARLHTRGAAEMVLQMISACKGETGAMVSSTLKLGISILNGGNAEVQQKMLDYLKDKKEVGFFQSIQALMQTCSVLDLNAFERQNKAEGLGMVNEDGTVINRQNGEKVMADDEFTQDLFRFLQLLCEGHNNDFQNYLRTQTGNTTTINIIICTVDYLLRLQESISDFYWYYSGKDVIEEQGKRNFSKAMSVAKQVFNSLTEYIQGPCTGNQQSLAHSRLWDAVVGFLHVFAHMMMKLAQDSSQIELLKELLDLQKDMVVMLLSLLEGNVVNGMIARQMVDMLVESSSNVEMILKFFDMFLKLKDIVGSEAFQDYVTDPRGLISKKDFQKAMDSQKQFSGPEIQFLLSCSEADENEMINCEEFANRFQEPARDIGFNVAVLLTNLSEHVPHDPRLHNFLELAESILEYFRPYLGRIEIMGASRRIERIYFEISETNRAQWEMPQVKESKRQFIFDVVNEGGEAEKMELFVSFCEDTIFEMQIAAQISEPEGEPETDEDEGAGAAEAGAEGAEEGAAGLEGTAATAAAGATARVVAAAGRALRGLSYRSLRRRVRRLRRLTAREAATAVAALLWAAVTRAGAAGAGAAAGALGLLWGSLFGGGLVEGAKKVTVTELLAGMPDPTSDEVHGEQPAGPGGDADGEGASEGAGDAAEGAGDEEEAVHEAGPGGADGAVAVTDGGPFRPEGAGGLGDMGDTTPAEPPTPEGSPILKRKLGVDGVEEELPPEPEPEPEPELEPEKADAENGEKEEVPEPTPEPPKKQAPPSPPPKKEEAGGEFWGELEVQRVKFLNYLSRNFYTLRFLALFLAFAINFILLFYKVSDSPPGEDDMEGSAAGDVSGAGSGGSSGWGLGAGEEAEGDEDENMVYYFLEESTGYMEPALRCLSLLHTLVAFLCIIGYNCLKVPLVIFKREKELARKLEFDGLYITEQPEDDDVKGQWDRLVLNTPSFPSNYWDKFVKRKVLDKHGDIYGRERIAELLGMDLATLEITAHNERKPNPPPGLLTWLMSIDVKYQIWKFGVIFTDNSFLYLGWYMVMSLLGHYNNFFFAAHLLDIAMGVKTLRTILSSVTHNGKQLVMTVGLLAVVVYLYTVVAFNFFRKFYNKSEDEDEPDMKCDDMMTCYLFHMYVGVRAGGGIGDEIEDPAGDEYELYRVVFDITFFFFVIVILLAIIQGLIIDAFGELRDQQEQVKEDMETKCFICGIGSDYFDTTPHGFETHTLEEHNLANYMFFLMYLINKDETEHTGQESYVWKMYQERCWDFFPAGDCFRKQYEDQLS", "T1 sequence (P62942 2-108 limits assumed)": "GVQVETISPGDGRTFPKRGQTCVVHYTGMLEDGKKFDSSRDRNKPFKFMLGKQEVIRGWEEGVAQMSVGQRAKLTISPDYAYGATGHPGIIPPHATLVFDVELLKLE", "test": "RyR1-calstabin1 interaction by in situ PLA in human myotubes under SIN1 nitro-oxidative stress", "assay_type": "cell-based", "details": "pre-treated 12 hours at 150 nM; SIN1 5 mM 30 minutes; FIG. 3", "experimental": "This assay was carried out in human control myotubes LHCN-M2 after 9 days in differentiation medium. Said myotubes were pre-treated for 12 hours with compounds AHK1 and AHK2 at a concentration of 150 nM. After treatment, the myotubes were subjected to peroxynitrite-induced nitro-oxidative stress by means of the addition of SIN1 (5 mM) for 30 minutes. RyR1-calstabin colocalization was analyzed by means of the in situ proximity ligation technique (in situ PLA) for which Sigma's Duolink II Network Fluorescence Kit and RyR1- and calstabin 1-specific antibodies were used. This technique allows detecting the exact location of two antigens located at a distance less than 40 nm from one another. To determine RyR1-calstabin-1 colocalization, 3 photographs were quantified for each condition with about 9 myotubes per field, using Image J computer software (http://rsb.info.nih.gov/ij/download.html). The colocalization area in each image was normalized to the myosin expression area, which was determined by means of immunofluorescence with a fluorescein-conjugated specific antibody."}, "[4]": {"test_system": "mdx mice", "test": "Grip strength of dystrophic mdx mice", "assay_type": "in vivo, mouse", "details": "0.25 mg/mL in drinking water, one-month old mdx mice", "experimental": "One-month old male dystrophic mdx mice supplied by Jackson Laboratory (https://www.jax.org/strain/001801) were used. The biological assays for measuring the effect of the Ahulken (AHK) compounds on muscle function were performed with one-month old mice, whereas the in vivo assays for determining the effect on the heart and CNS were performed with four-month old mice. The one-month old mice were treated with compound AHK1 or compound AHK2 for 5 weeks, where said compounds were administered in drinking water at a concentration of 0.25 mg/mL. The muscle strength of the front paws was measured every week using a grip strength meter and the obtained value was normalized by the body weight of the animal. To that end, the indications described in the TREAT-NMD Neuromuscular Network protocol (http://www.treat-nmd.eu/downloads/file/sops/dmd/MDX/DMD_M.2.2.001.pdf) were followed."}, "[5]": {"test_system": "mdx mice", "test": "Muscle degeneration/regeneration: percentage of central nuclei in muscle cryosections of mdx mice", "assay_type": "in vivo, mouse", "details": "5-week treatment of mdx mice; 0.25 mg/mL in drinking water; FIG. 5", "experimental": "After concluding the 5-week treatment, the tibialis anterior muscle was obtained and processed for subsequent biochemical and immunohistological analysis to determine the degree of muscle damage. Cell-death derived regeneration was determined in muscle cryosections by means of quantifying the percentage of central nuclei using standard immunofluorescence techniques for detecting collagen IV and cell nuclei."}, "[6]": {"test_system": "tibialis anterior muscle of mdx mice", "test": "Gene expression pattern of tibialis anterior muscle of mdx mice (RT Profiler PCR Array)", "assay_type": "in vivo, mouse", "experimental": "In turn, the biochemical analysis of the tibialis anterior muscle was performed by means of RNA extraction and expression pattern analysis in control mice, mdx mice and mice subjected to different treatments. To that end, the […] skeletal muscle, myogenesis and myopathy RT Profiler PCR Array (PAHS-099Z, QIAGEN) was used, using cDNA mixtures of at least 3 mice per group. The expression profile of 84 genes involved in physiopathological mechanisms of the skeletal muscle was thus analyzed. The experiments were conducted in 7300 Real-Time PCR equipment (Applied Biosystems) and the results obtained were analyzed using QIAGEN online software (http://www.sabiosciences.com/dataanalysis.php)."}}}
{"smiles": "COc1cccc(SCc2cn(CC(=O)O)nn2)c1", "note": "[AHK1, 1-carboxymethyl-4-[3-(methoxy)phenylthiomethyl]-1H-1,2,3-triazole]", "values": [{"measurement": "in vitro acute toxicity against human myotubes", "setting": "[1]", "value": "do not show in vitro acute toxicity"}, {"measurement": "intracellular calcium levels at rest in MDX fibers", "setting": "[2]", "value": "brought intracellular calcium levels back to the control levels"}, {"measurement": "dissociation of the RyR1-Calst1 complex in the presence of SIN1", "setting": "[3]", "value": "partially prevented"}, {"measurement": "grip strength compared to untreated littermates", "setting": "[4]; after 2 weeks of treatment", "value": "increased significantly"}, {"measurement": "increase of muscle strength", "setting": "[4]; after 5 weeks of treatment, FIG. 4", "value": 20, "unit": "%"}, {"measurement": "percentage of central nuclei", "setting": "[5]", "value": "significantly reduced"}, {"measurement": "Ratio of change vs. control, Akt1", "setting": "[6]; gene Akt1, MDX + AHK1, 5 weeks, tibialis anterior, untreated MDX 2.63", "value": 1.42}, {"measurement": "Ratio of change vs. control, Bcl2", "setting": "[6]; gene Bcl2, MDX + AHK1, 5 weeks, tibialis anterior, untreated MDX 1.94", "value": 1.05}, {"measurement": "Ratio of change vs. control, Bmp4", "setting": "[6]; gene Bmp4, MDX + AHK1, 5 weeks, tibialis anterior, untreated MDX 1.93", "value": 2.08}, {"measurement": "Ratio of change vs. control, Capn2", "setting": "[6]; gene Capn2, MDX + AHK1, 5 weeks, tibialis anterior, untreated MDX 2.90", "value": 1.75}, {"measurement": "Ratio of change vs. control, Casp3", "setting": "[6]; gene Casp3, MDX + AHK1, 5 weeks, tibialis anterior, untreated MDX 10.28", "value": 5.27}, {"measurement": "Ratio of change vs. control, Cast", "setting": "[6]; gene Cast, MDX + AHK1, 5 weeks, tibialis anterior, untreated MDX 1.86", "value": 1.49}, {"measurement": "Ratio of change vs. control, Cav3", "setting": "[6]; gene Cav3, MDX + AHK1, 5 weeks, tibialis anterior, untreated MDX 3.28", "value": 1.68}, {"measurement": "Ratio of change vs. control, Cryab", "setting": "[6]; gene Cryab, MDX + AHK1, 5 weeks, tibialis anterior, untreated MDX 3.08", "value": 1.50}, {"measurement": "Ratio of change vs. control, Ctnnb1", "setting": "[6]; gene Ctnnb1, MDX + AHK1, 5 weeks, tibialis anterior, untreated MDX 1.79", "value": 1.27}, {"measurement": "Ratio of change vs. control, Dag1", "setting": "[6]; gene Dag1, MDX + AHK1, 5 weeks, tibialis anterior, untreated MDX 2.27", "value": 1.23}, {"measurement": "Ratio of change vs. control, Des", "setting": "[6]; gene Des, MDX + AHK1, 5 weeks, tibialis anterior, untreated MDX 2.14", "value": 1.53}, {"measurement": "Ratio of change vs. control, Dysf", "setting": "[6]; gene Dysf, MDX + AHK1, 5 weeks, tibialis anterior, untreated MDX 2.15", "value": 1.28}, {"measurement": "Ratio of change vs. control, Foxo3", "setting": "[6]; gene Foxo3, MDX + AHK1, 5 weeks, tibialis anterior, untreated MDX 1.76", "value": 1.14}, {"measurement": "Ratio of change vs. control, Igf1", "setting": "[6]; gene Igf1, MDX + AHK1, 5 weeks, tibialis anterior, untreated MDX 2.87", "value": 2.07}, {"measurement": "Ratio of change vs. control, Igf2", "setting": "[6]; gene Igf2, MDX + AHK1, 5 weeks, tibialis anterior, untreated MDX 22.31", "value": 9.78}, {"measurement": "Ratio of change vs. control, Igfbp3", "setting": "[6]; gene Igfbp3, MDX + AHK1, 5 weeks, tibialis anterior, untreated MDX 1.77", "value": 1.34}, {"measurement": "Ratio of change vs. control, Igfbp5", "setting": "[6]; gene Igfbp5, MDX + AHK1, 5 weeks, tibialis anterior, untreated MDX 2.52", "value": 1.43}, {"measurement": "Ratio of change vs. control, Ikbkb", "setting": "[6]; gene Ikbkb, MDX + AHK1, 5 weeks, tibialis anterior, untreated MDX 2.72", "value": 1.62}, {"measurement": "Ratio of change vs. control, Il1b", "setting": "[6]; gene Il1b, MDX + AHK1, 5 weeks, tibialis anterior, untreated MDX 17.77", "value": 2.82}, {"measurement": "Ratio of change vs. control, Il6", "setting": "[6]; gene Il6, MDX + AHK1, 5 weeks, tibialis anterior, untreated MDX 32.72", "value": 9.76}, {"measurement": "Ratio of change vs. control, Lmna", "setting": "[6]; gene Lmna, MDX + AHK1, 5 weeks, tibialis anterior, untreated MDX 5.29", "value": 2.52}, {"measurement": "Ratio of change vs. control, Mapk3", "setting": "[6]; gene Mapk3, MDX + AHK1, 5 weeks, tibialis anterior, untreated MDX 2.61", "value": 1.69}, {"measurement": "Ratio of change vs. control, Mmp9", "setting": "[6]; gene Mmp9, MDX + AHK1, 5 weeks, tibialis anterior, untreated MDX 4.51", "value": 2.01}, {"measurement": "Ratio of change vs. control, Musk", "setting": "[6]; gene Musk, MDX + AHK1, 5 weeks, tibialis anterior, untreated MDX 3.51", "value": 2.00}, {"measurement": "Ratio of change vs. control, Myf5", "setting": "[6]; gene Myf5, MDX + AHK1, 5 weeks, tibialis anterior, untreated MDX 3.40", "value": 2.13}, {"measurement": "Ratio of change vs. control, Myod1", "setting": "[6]; gene Myod1, MDX + AHK1, 5 weeks, tibialis anterior, untreated MDX 4.27", "value": 1.28}, {"measurement": "Ratio of change vs. control, Myog", "setting": "[6]; gene Myog, MDX + AHK1, 5 weeks, tibialis anterior, untreated MDX 17.36", "value": 3.24}, {"measurement": "Ratio of change vs. control, Nfkb1", "setting": "[6]; gene Nfkb1, MDX + AHK1, 5 weeks, tibialis anterior, untreated MDX 2.45", "value": 1.67}, {"measurement": "Ratio of change vs. control, Pax3", "setting": "[6]; gene Pax3, MDX + AHK1, 5 weeks, tibialis anterior, untreated MDX 2.16", "value": 2.48}, {"measurement": "Ratio of change vs. control, Pax7", "setting": "[6]; gene Pax7, MDX + AHK1, 5 weeks, tibialis anterior, untreated MDX 3.82", "value": 2.55}, {"measurement": "Ratio of change vs. control, Ppargc1b", "setting": "[6]; gene Ppargc1b, MDX + AHK1, 5 weeks, tibialis anterior, untreated MDX 1.77", "value": 1.23}, {"measurement": "Ratio of change vs. control, Prkaa1", "setting": "[6]; gene Prkaa1, MDX + AHK1, 5 weeks, tibialis anterior, untreated MDX 2.33", "value": 1.55}, {"measurement": "Ratio of change vs. control, Prkag3", "setting": "[6]; gene Prkag3, MDX + AHK1, 5 weeks, tibialis anterior, untreated MDX 2.52", "value": 2.68}, {"measurement": "Ratio of change vs. control, Rhoa", "setting": "[6]; gene Rhoa, MDX + AHK1, 5 weeks, tibialis anterior, untreated MDX 2.30", "value": 1.80}, {"measurement": "Ratio of change vs. control, Rps6kb1", "setting": "[6]; gene Rps6kb1, MDX + AHK1, 5 weeks, tibialis anterior, untreated MDX 1.77", "value": 1.25}, {"measurement": "Ratio of change vs. control, Tgfb1", "setting": "[6]; gene Tgfb1, MDX + AHK1, 5 weeks, tibialis anterior, untreated MDX 6.51", "value": 3.61}, {"measurement": "Ratio of change vs. control, Tnf", "setting": "[6]; gene Tnf, MDX + AHK1, 5 weeks, tibialis anterior, untreated MDX 15.01", "value": 10.27}, {"measurement": "Ratio of change vs. control, Tnnc1", "setting": "[6]; gene Tnnc1, MDX + AHK1, 5 weeks, tibialis anterior, untreated MDX 25.00", "value": 4.53}, {"measurement": "Ratio of change vs. control, Tnnt1", "setting": "[6]; gene Tnnt1, MDX + AHK1, 5 weeks, tibialis anterior, untreated MDX 12.09", "value": 3.37}, {"measurement": "Ratio of change vs. control, Utrn", "setting": "[6]; gene Utrn, MDX + AHK1, 5 weeks, tibialis anterior, untreated MDX 2.03", "value": 1.35}, {"measurement": "number of genes the expression of which was increased with respect to control (at least 1.75-fold)", "setting": "[6]; mdx mice treated 5 weeks, 84 genes analyzed, 40 in untreated mdx", "value": 20}]}
